Where “and” joins values, the source holds several entries; their conditions need not be identical. Equal entries are not always repeated. Where only a bound is given, the exact number is not on record here.

This note sets out measurements from PubChem BioAssay AID1963832 (Molecular Pharmacology Branch, DTP, NCI, 2024).

This test has as its system 885724-159-R-J1-PDC complex spheroid viability. The test is described as follows: Anticancer human tumor 885724-159-R-J1-PDC patient-derived pancreatic adenocarcinoma cell line growth inhibition [POLQ]. Conditions: for viability, T/C: stronger effect = lower value. On the procedure:
Multicellular complex tumor spheroid response to Polymerase (POL) inhibitors (novobiocin, ART-558, RP6685) in combination with a variety of drugs and investigational agents in selected tumor cell lines
The POL inhibitors (novobiocin, ART-558, and RP6685) were evaluated both individually and in combination with standard of care and investigational anticancer small molecules within a complex spheroid model of solid tumors. . Complex spheroids include a stromal component modeled by human endothelial cells (HUVEC) and fibroblasts modeled by human mesenchymal stem cells (MSCs). The concentration ranges selected for each drug and investigational agent were based upon clinically achievable concentrations if the clinical Cmax of the agent was known.
Compounds. The drugs and investigational agents: novobiocin (NSC847541), ART-558 (NSC835418), RP-6685 (NSC848927), peposertib (NSC802822), ceralasertib (NSC780249), elimusertib (NSC800525), camonsertib (NSC841442), AZD-1390 (NSC803789), olaparib (NSC753686), talazoparib (NSC767125), rucaparib (NSC756644), sotorasib (NSC818433), MRTX-1133 (NSC836407), SN-38 (NSC673596), topotecan (NSC609699), epotoside (NSC141540), doxorubicin (NSC123127), gemcitabine (NSC613327), 5-fluorouracil (NSC19893), paclitaxel (NSC125973), vemurafenib (NSC761431), MSA-2 (NSC828583), SN-011 (NSC837082), adavosertib (NSC754352), prexasertib (NSC758257), carboplatin (NSC241240) and oxaliplatin (NSC266046), were obtained from the National Cancer Institute (NCI) Developmental Therapeutics Program Chemical Repository (21). The FDA-approved anticancer drug set is available from the Developmental Therapeutics Program at https://dtp.cancer.gov/organization/dscb/obtaining/. […] The stock solutions were prepared in dimethyl sulfoxide (DMSO, Sigma-Aldrich, St. Louis, MO, cat. D2650), except for the platinum compounds which were prepared in saline (Quality Biological, Gaithersburg, MD, cat. 114-055-101), at 800-fold the tested concentration and stored at -70 degrees C prior to their use. All drugs and investigational agents were tested over a range starting from a high concentration at or near the clinical Cmax and decreasing in half-log increments. If the clinical Cmax for an agent had not been determined, the highest concentration tested was 10 microM, except for SN-38, which was tested at a high concentration of 1 microM.
Cell Culture. All cells were maintained in an incubator at 37 degrees C and 5% CO2 with 95% humidity. The PDC lines were cultured according to standard operating procedures established by the NCI PDMR (https://pdmr.cancer.gov). Table 3 of the manuscript, lists the cell lines along with the number of the three cell types plated to form the mct-spheroids and media for tumor cell growth. After thawing, all PDC lines, except 997537-175-T-J1-PDC and 415267-285-R-J2-PDC, were cultured in Matrigel-coated flasks prepared with a working solution of 1X Ham's F-12 nutrient mix, without supplementation (Thermo Fisher Scientific, cat. 11765054), 100 U/mL penicillin-streptomycin (Thermo Fisher Scientific, cat. 15140122), and 2.5% Matrigel (Corning Inc., Corning, NY, cat. 354248) for the first three passages. The two PDC lines 997537-175-T-J1-PDC and 415267-285-R-J2-PDC were cultured on uncoated flasks. The 857933-349-R-J2-PDC line was cultured in 6C/Colon 1B media containing advanced DMEM/F-12 (Thermo Fisher Scientific, cat. 12634028), 10 mM HEPES (Thermo Fisher Scientific, cat. 15630080), 1X GlutaMAX supplement (Thermo Fisher Scientific, cat. 35050061), 0.1 mg/mL primocin (InvivoGen, San Diego, CA, cat. ant-pm-2), 10% defined fetal bovine serum, heat inactivated (HyClone Laboratories Inc., Logan, UT, cat. SH30070.03HI), 50% L-WRN conditioned media (ATCC, cat. CRL-3276), 1.25 mM N-Acetyl-L-cysteine (Sigma-Aldrich, cat. A9165), 10 mM nicotinamide (Sigma-Aldrich, cat. N0636), 1X B-27 supplement (Thermo Fisher Scientific, cat. 17504044), 1X N-2 supplement (Thermo Fisher Scientific, cat. […]
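Also: spheroids exposed to compounds for 7 days.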

On to `CNCc1ccc(-c2[nH]c3cc(F)cc4c3c2CCNC4=O)cc1` + Cc1cccc(N(C)C(=O)C2C(O)CCN2c2nc(C)cc(C(F)(F)F)c2C#N)c1, for which the IC50 was over 10 µM (curve of first compound, second compound 0.0316 µM); over 10 µM (curve of first compound, second compound 0.1 µM); over 10 µM (curve of first compound, second compound 0.316 µM); over 10 µM (curve of first compound, second compound 1 µM); over 10 µM (curve of first compound, second compound 3.16 µM); over 10 µM (curve of first compound, second compound 10 µM). For the same compound, the viability, T/C was 92.2% (second compound 0.0316 µM, first compound 0.0316 µM); 102% (second compound 0.0316 µM, first compound 0.1 µM); 98.2% (second compound 0.0316 µM, first compound 0.316 µM); 89.2% (second compound 0.0316 µM, first compound 1 µM); 90.3% (second compound 0.0316 µM, first compound 3.16 µM); 83.9% (second compound 0.0316 µM, first compound 10 µM). Moreover, the viability, T/C is 104% (second compound 0.1 µM, first compound 0.0316 µM); 104% (second compound 0.1 µM, first compound 0.1 µM); 91.1% (second compound 0.1 µM, first compound 0.316 µM); 92.7% (second compound 0.1 µM, first compound 1 µM); 93.3% (second compound 0.1 µM, first compound 3.16 µM); 83.2% (second compound 0.1 µM, first compound 10 µM). The viability, T/C was 104% (second compound 0.316 µM, first compound 0.0316 µM); 94.1% (second compound 0.316 µM, first compound 0.1 µM); 102% (second compound 0.316 µM, first compound 0.316 µM); 87.9% (second compound 0.316 µM, first compound 1 µM); 92% (second compound 0.316 µM, first compound 3.16 µM); 88.5% (second compound 0.316 µM, first compound 10 µM). Further, the viability, T/C is, setting by setting: (second compound 1 µM, first compound 0.0316 µM) 92.2%; (second compound 1 µM, first compound 0.1 µM) 89.5%; (second compound 1 µM, first compound 0.316 µM) 88.7%; (second compound 1 µM, first compound 1 µM) 113%; (second compound 1 µM, first compound 3.16 µM) 91%; (second compound 1 µM, first compound 10 µM) 86.3%. For the same compound, the viability, T/C by setting is: (second compound 3.16 µM, first compound 0.0316 µM) 102%; (second compound 3.16 µM, first compound 0.1 µM) 90.8%; (second compound 3.16 µM, first compound 0.316 µM) 97.5%; (second compound 3.16 µM, first compound 1 µM) 96.3%; (second compound 3.16 µM, first compound 3.16 µM) 92.5%; (second compound 3.16 µM, first compound 10 µM) 85.2%. Further, the viability, T/C (second compound 10 µM, first compound 0.0316 µM) was 97%; the viability, T/C (second compound 10 µM, first compound 0.1 µM) was 103%; the viability, T/C (second compound 10 µM, first compound 0.316 µM) is 85.2%; the viability, T/C (second compound 10 µM, first compound 1 µM) is 88%; the viability, T/C (second compound 10 µM, first compound 3.16 µM) was 86.1%; the viability, T/C (second compound 10 µM, first compound 10 µM) is 88.5%.
`Nc1ccc(C#CCN(C(=O)Cc2ncc(C(F)(F)F)cc2C(F)(F)F)c2ccc(F)cc2)nn1`: the viability, T/C reads like this: (compound 0.0316 µM) 94.8% [middle of 13 runs]; (compound 0.1 µM) 93.2% [middle of 13 runs]; (compound 0.316 µM) 97% [middle of 13 runs]; (compound 1 µM) 96.2% [middle of 13 runs]; (compound 3.16 µM) 97.6% [middle of 13 runs]; (compound 10 µM) 105% [middle of 12 runs]. Besides, under “compound alone, run of 12/05/2023”, the IC50 was over 10 µM.
As for `O=c1[nH]cc(F)c(=O)[nH]1`, the viability, T/C was 98.3% and 96.3% and 103% (compound 0.0316 µM); 102% and 95.3% and 108% (compound 0.1 µM); 103% and 89.2% and 105% (compound 0.316 µM); 87.9% and 98.7% and 102% (compound 1 µM); 87.6% and 89.9% and 91.7% (compound 3.16 µM); 75% and 75.8% and 71.4% (compound 10 µM). The IC50 (curve of compound) is over 10 µM.
Turning to `CC(=O)O[C@H]1C(=O)[C@@]2(C)[C@H]([C@H](OC(=O)c3ccccc3)[C@]3(O)C[C@H](OC(=O)[C@H](O)[C@@H](NC(=O)c4ccccc4)c4ccccc4)C(C)=C1C3(C)C)[C@]1(OC(C)=O)CO[C@@H]1C[C@@H]2O`, the viability, T/C reads like this: (compound 0.00949 µM) 65.2% and 64.9% and 66%; (compound 0.03 µM) 56.1% and 54% and 50.9%; (compound 0.0949 µM) 56.4% and 63.5% and 54.9%; (compound 0.3 µM) 63.1% and 64.1% and 57.5%; (compound 0.949 µM) 67.5% and 71.9% and 63.7%; (compound 3 µM) 68.5% and 70.2% and 60.7%. Also, for the setting “curve of compound”, the concentration for half-maximal inhibition (IC50) is over 3 µM.
Turning to `CCc1cc2c(N3CCc4c(cc(Cn5ccnc5)cc4-c4cn(C)nc4C(F)(F)F)C3=O)cc(C)nc2c(OC)n1`, the viability, T/C runs as follows: (compound 0.0316 µM) 78.8% and 91% and 78.9%; (compound 0.1 µM) 81.9% and 91.9% and 92.2%; (compound 0.316 µM) 79.6% and 85.4% and 85.2%; (compound 1 µM) 81.4% and 83.5% and 75.8%; (compound 3.16 µM) 76.3% and 76.6% and 80.9%; (compound 10 µM) 72.1% and 69.1% and 62.2%. Besides, where the note is “curve of compound”, the IC50 is over 10 µM.
